Our source for the IC50 values is patent publication US20160145247A1, “Aminomethyl-Biaryl Derivatives Complement Factor D inhibitors and uses thereof” (NOVARTIS AG, priority 2013, published 2016).

For orientation: IC50 means the concentration that inhibits the measured activity by half. A low value points to greater potency in that assay.

In this assay the target is T1, factor D (Homo sapiens, UniProt P00746).
T1 construct: made in house; host or cells: E. coli
T1 sequence (P00746 26-253): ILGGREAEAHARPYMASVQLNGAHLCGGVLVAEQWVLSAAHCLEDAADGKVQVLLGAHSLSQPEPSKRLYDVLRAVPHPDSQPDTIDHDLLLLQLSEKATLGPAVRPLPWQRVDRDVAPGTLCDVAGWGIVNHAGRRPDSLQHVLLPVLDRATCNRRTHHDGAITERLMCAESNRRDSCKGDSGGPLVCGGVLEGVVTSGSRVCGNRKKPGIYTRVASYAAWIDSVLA
The assay is described as follows: factor D inhibition assay of Biological Example 2. It is filed as biochemical.
For the compound `C[C@@H](N)c1cccc(-c2cc(CNC3CC3)cc(COc3ccccc3CC(=O)O)c2)c1F` [Example 216-AD], half-maximal inhibition (IC50) required 20 nM. This lies in the double-digit nanomolar range.
`NCc1cccc(-c2cccc(COc3cc(CC4CC4)ccc3CC(=O)O)c2)c1` [Example 295-C, 2-(2-((3′-(aminomethyl)-[1,1′-biphenyl]-3-yl)methoxy)-4-(cyclopropylmethyl)phenyl)acetic acid]: the midpoint of inhibition, the IC50, lay at 9 nM.
In turn, `CNC(=O)c1cc(COc2cc(C(=O)Nc3ccccc3CC(=O)O)cc(-c3cc(F)cc(CN)c3)c2)ccn1` [Example 71, 2-(2-(3′-(Aminomethyl)-5′-fluoro-5-((2-(methylcarbamoyl)pyridin-4-yl)methoxy)-[1,1′-biphenyl]-3-ylcarboxamido)phenyl)acetic acid] returned an IC50 of 9 nM.
Compound `CCN(CC1CC1)c1cc(COc2ccccc2CC(=O)O)cc(-c2cccc([C@@H](C)N)c2F)c1` [Example 242-C, (R)-2-(2-((3′-(1-aminoethyl)-5-((cyclopropylmethyl)(ethyl)amino)-2′-fluoro-[1,1′-biphenyl]-3-yl)methoxy)phenyl)acetic acid] returned an IC50 of 90 nM.
In turn, `N[C@H](CO)c1cccc(-c2cc(COc3ccccc3CC(=O)O)cc(C(O)C(F)(F)F)c2)c1` (single isomer, unassigned) [116-G b) (tr = 2.1 min)] came in with an IC50 of 11 nM.
The same measure for `NCc1cccc(-c2cc(COc3ccccc3CC(=O)O)cc(NCC3CC3)c2)c1` [Example 139, 2-(2-((3′-(Aminomethyl)-5-((cyclopropylmethyl)amino)-[1,1′-biphenyl]-3-yl)methoxy)phenyl)acetic acid]: 22 nM.
For `C[C@@H](N)c1cccc(-c2cc(COc3ccccc3CC(=O)O)cc(C(O)C(F)(F)F)c2)c1` (single isomer, unassigned) [116-H b) (tr = 3.0 min)] the value was 10 nM; for `NCc1cccc(-c2cc(COc3ccccc3CC(=O)O)cc(OCC3CC3)c2)c1` [Example 136, 2-(2-((3′-(Aminomethyl)-5-(cyclopropylmethoxy)-[1,1′-biphenyl]-3-yl)methoxy)phenyl)acetic acid], 5 nM.
The compound `NC(CF)c1cccc(-c2cccc(COc3ccccc3CC(=O)O)c2)c1` (single isomer, unassigned; (+)) [Example 190-B (+), (+)-2-(2-((3′-(1-amino-2-fluoroethyl)-[1, 1′-biphenyl]-3-yl)methoxy)phenyl)acetic acid] registered an IC50 of 9 nM.
For `COCCc1cc(COc2ccccc2CC(=O)O)cc(-c2cccc([C@@H](C)N)c2)c1` [Example 120-W], the IC50 stood at 13 nM.
Compound `COCCNc1cc(C(=O)Nc2ccccc2CC(=O)O)cc(-c2cccc([C@H](N)CO)c2)c1` [Example 83-D, (S)-2-(2-(3′-(1-amino-2-hydroxyethyl)-5-((2-methoxyethyl)amino)-[1,1′-biphenyl]-3-ylcarboxamido)phenyl)acetic acid] registered an IC50 of 22 nM.
Turning to `NCc1cccc(-c2cc(COc3ccccc3CC(=O)O)cc(COc3ccccc3CC(=O)O)c2)c1` [Example 116-C], half-maximal inhibition (IC50) required 4 nM.
Take `C[C@@H](N)c1cccc(-c2cc(COc3ccccc3CC(=O)O)cc(OCC3(C)CC3)c2)c1` [Example 261, (R)-2-(2-((3′-(1-aminoethyl)-5-((1-methylcyclopropyl)methoxy)-[1,1′-biphenyl]-3-yl)methoxy)phenyl)acetic acid]: the midpoint of inhibition, the IC50, lay at 24 nM.
`COCc1cc(COc2ccccc2CC(=O)O)cc(-c2cccc([C@@H](C)N)c2)c1` [Example 120-C] yielded an IC50 of 3 nM.
`NCc1cc(F)cc(-c2cccc(S(=O)(=O)Nc3ccccc3CC(=O)O)c2)c1` [Example 49, 2-(2-(3′-(aminomethyl)-5′-fluoro-[1,1′-biphenyl]-3-ylsulfonamido)phenyl)acetic acid]: the IC50 worked out at 2270 nM.
For `NCc1cc(F)cc(-c2nc(C(=O)Nc3ccccc3CC(=O)O)cs2)c1` [Example 29, 2-(2-(2-(3-(aminomethyl)-5-fluorophenyl)thiazole-4-carboxamido)phenyl)acetic acid] the value was 62 nM.
`C[C@@H](N)c1cc(-c2cccc(COc3ccccc3CC(=O)O)c2)ccn1` [Example 142-D] registered an IC50 of 346 nM.
As to `N[C@H](CO)c1cccc(-c2cc(COc3ccccc3CC(=O)O)cc(NCC3CC3)c2)c1` [Example 128-C, (S)-2-(2-((3′-(1-Amino-2-hydroxyethyl)-5-((cyclopropylmethyl)amino)-[1,1′-biphenyl]-3-yl)methoxy)phenyl)acetic acid], the IC50 stood at 3 nM.
In turn, `NCc1cccc(-c2cc(OCc3ncccn3)cc(C(=O)Nc3ccccc3CC(=O)O)c2)c1` [Example 61-B, 2-(2-(3′-(Aminomethyl)-5-(pyrimidin-2-ylmethoxy)-[1,1′-biphenyl]-3-ylcarboxamido)phenyl)acetic acid] showed an IC50 of 32 nM.
`NCc1cc(F)cc(-c2cc(NCC3CCOC3)cc(C(=O)Nc3ccccc3CC(=O)O)c2)c1` (stereo not drawn) [Example 79-A] gave a half-inhibitory concentration (IC50) of 5 nM. This IC50 lies about 6.4-fold lower than the previous one.
Consider `C[C@H](N)c1cccc(-c2cccc(COc3ccccc3CC(=O)O)c2)c1F` [Example 142-H], for which the IC50 came out at 22 nM.
The compound `CC(NCc1cc(COc2ccccc2CC(=O)O)cc(-c2cccc(CN)c2)c1)C(F)(F)F` (stereo not drawn) [Example 208-F] showed an IC50 of 9 nM.
Take `C[C@@H]1CN(Cc2cc(COc3ccccc3CC(=O)O)cc(-c3cccc([C@@H](C)N)c3F)c2)C[C@H](C)O1` [Example 216-AH]: inhibition was half-maximal at 90 nM (IC50).
In turn, `CC(O)c1ccc(NC(=O)c2cccc(-c3cc(F)cc(CN)c3)c2)c(CC(=O)O)c1` (stereo not drawn) [Example 24, 2-(2-(3′-(Aminomethyl)-5′-fluoro-[1,1′-biphenyl]-3-ylcarboxamido)-5-(1-hydroxyethyl)phenyl)acetic acid] yielded a half-maximal inhibitory concentration (IC50) of 1740 nM.
In turn, `C[C@@H](N)c1cccc(-c2cc(CCc3ccncc3)cc(COc3ccccc3CC(=O)O)c2)c1F` [Example 216-P] displayed an IC50 of 13 nM.
Compound `NC(CF)c1cccc(-c2cc(COc3ccccc3CC(=O)O)cc(CN3CCOCC3)c2)c1F` (single isomer, unassigned) [Example 217-D, (+) or (−)-2-(2-((3′-(1-Amino-2-fluoroethyl)-2′-fluoro-5-(morpholinomethyl)-[1,1′-biphenyl]-3-yl)methoxy)phenyl)acetic acid] showed a half-inhibitory concentration (IC50) of 63 nM.
`N[C@H](CO)c1cccc(-c2cc(COc3ccccc3CC(=O)O)cc(NCC3CCCO3)c2F)c1` (mixture of isomers) [Example 157, 2-(2-((3′-((S)-1-Amino-2-hydroxyethyl)-6-fluoro-5-(((tetrahydrofuran-2-yl)methyl)amino)-[1,1′-biphenyl]-3-yl)methoxy)phenyl)acetic acid] registered an IC50 of 5 nM.
In turn, `CC(C)CNc1cc(COc2ccccc2CC(=O)O)cc(-c2cccc([C@@H](C)N)c2F)c1` [Example 224-B, (R)-2-(2-((3′-(1-aminoethyl)-2′-fluoro-5-(isobutylamino)-[1,1′-biphenyl]-3-yl)methoxy)phenyl)acetic acid] yielded an IC50 of 9 nM. Compared with the last compound, the IC50 is about 1.8-fold higher.
The same measure for `N[C@H](CO)c1cccc(-c2cccc(COc3ccccc3CC(=O)O)c2)n1` [Example 138-K]: 45 nM; for `COC(=O)Cc1ccccc1NC(=O)c1ccc(OC)c(-c2cccc(CN)c2)c1` [Example 8-A, Methyl 2-(2-(3′-(aminomethyl)-6-methoxy-[1,1′-biphenyl]-3-ylcarboxamido)phenyl)acetate]: 5050 nM.
For `NCc1cc(F)cc(-c2csc(C(=O)Nc3ccccc3CC(=O)O)n2)c1` [Example 28-B, 2-(2-(4-(3-(aminomethyl)-5-fluorophenyl)thiazole-2-carboxamido)phenyl)acetic acid] the value was 57 nM; for `C[C@@H](N)c1cccc(-c2cc(COc3ccccc3CC(=O)O)cc(OCCN3CCCC3)c2)c1F` [Example 214-G], 22 nM.
Take `NCc1cccc(-c2cc(CNC(c3ccccc3)C(F)(F)F)cc(COc3ccccc3CC(=O)O)c2)c1` (stereo not drawn) [Example 286-E, 2-(2-((3′-(aminomethyl)-5-(((2,2,2-trifluoro-1-phenylethyl)amino)methyl)-[1,1′-biphenyl]-3-yl)methoxy)phenyl)acetic acid]: the midpoint of inhibition, the IC50, lay at 6 nM.
Compound `COCCn1cc(-c2cc(COc3ccccc3CC(=O)O)cc(-c3cccc(CN)c3)c2)cn1` [Example 209-E] came in with an IC50 of 5 nM.
Take `NC(CF)c1cccc(-c2cc(CNCC(F)(F)F)cc(COc3ccccc3CC(=O)O)c2)c1F` (stereo not drawn) [Example 285-A]: the IC50 stood at 35 nM.
`CC(O)c1cc(COc2ccccc2CC(=O)O)cc(-c2cccc([C@H](N)CO)c2)c1` (single isomer, unassigned) [116-E b) (tr = 5.7 min)] yielded an IC50 of 13 nM.
For `C[C@@H](N)c1cccc(-c2cccc(C(=O)Nc3ccccc3CC(=O)O)c2)c1` [Example 90, (R)-2-(2-(3′-(1-aminoethyl)-[1,1′-biphenyl]-3-ylcarboxamido)phenyl)acetic acid] the value was 823 nM; for `C[C@@H](N)c1cccc(-c2cc(COCC(F)(F)F)cc(COc3ccccc3CC(=O)O)c2)c1F` [Example 120-M], 11 nM; for `C[C@H](N)c1cccc(-c2cc(COc3ccccc3CC(=O)O)cc(S(C)(=O)=O)c2)c1F` [Example 252, (S)-2-(2-((3′-(1-aminoethyl)-2′-fluoro-5-(methylsulfonyl)-[1,1′-biphenyl]-3-yl)methoxy)phenyl)acetic acid], 1580 nM.
On to `NCc1cc(F)cc(-c2cc(OCc3ccncc3)cc(C(=O)Nc3ccccc3CC(=O)O)c2)c1` [Example 65, 2-(2-(3′-(Aminomethyl)-5′-fluoro-5-(pyridin-4-ylmethoxy)-[1,1′-biphenyl]-3-ylcarboxamido)phenyl)acetic acid], for which the IC50 was determined as 17 nM.
With `C[C@@H](N)c1cccc(-c2cc(COc3ccccc3CC(=O)O)cc(OCc3nccs3)c2)c1F` [Example 214-B], inhibition was half-maximal at 5 nM (IC50).
`CC(Oc1ccccc1CC(=O)O)c1cccc(-c2cccc(CN)c2F)c1` (racemic) [Example 183, (±)-2-(2-(1-(3′-(Aminomethyl)-2′-fluoro-[1,1′-biphenyl]-3-yl)ethoxy)phenyl)acetic acid] yielded an IC50 of 29 nM.
